The values below come from ChEMBL document CHEMBL6177915, “Design, synthesis and mechanistic insights into triclosan derived dimers as potential anti-plasmodials” (RSC Med Chem, 2025).

Data set [1] is described as follows: Selectivity index, ratio of CC50 for Cytotoxicity against African green monkey Vero E6 cells to IC50 for Antiplasmodial activity against CQ-resistant Plasmodium falciparum W2. In kind it is toxicity, cell-based. The conditions noted are these: read-out: Ratio CC50/IC50.
The nature of data set [2]: Cytotoxicity against African green monkey Vero E6 cells assessed as cell viability measured after 48 hrs incubation by MTT assay. In kind it is toxicity, cell-based, Vero C1008. The conditions noted are these: chlorocebus sabaeus.
The subject of data set [3] is Plasmodium falciparum. The data set is described as follows: Antiplasmodial activity against CQ-susceptible Plasmodium falciparum 3D7 assessed as inhibition of parasite growth incubated for 72 hrs by HRP2 based ELISA. In kind it is functional, organism-based. The settings on record: 3D7, 72 h. Background: An ELISA detects its analyte on a solid surface through an enzyme-linked reagent.

The test system of data set [4] is Plasmodium falciparum. The data set is described as follows: Resistance index, ratio of IC50 for antiplasmodial activity against CQ-resistant Plasmodium falciparum W2 to IC50 for antiplasmodial activity against CQ-susceptible Plasmodium falciparum 3D7. In kind it is functional.
Data set [5] concerns Plasmodium falciparum. Kind of data set: Antiplasmodial activity against CQ-resistant Plasmodium falciparum W2 assessed as inhibition of parasite growth incubated for 72 hrs by HRP2 based ELISA. In kind it is functional, organism-based. The conditions noted are these: W2, 72 h.
Data set [6] deals with Plasmodium falciparum. The data set is described as follows: Antiplasmodial activity against Plasmodium falciparum W2. In kind it is functional, organism-based.
Data set [7] can be described thus: Inhibition of Plasmodium falciparum enoyl ACP reductase.
Data set [8] relates to Heme. Kind of data set: Binding affinity to heme assessed as binding constant logK of the compound in MES buffer at pH 5.6.
The subject of data set [9] is Heme. The data set is described as follows: Binding affinity to heme assessed as binding constant logK of the compound in HEPES buffer at pH 7.4.

pIC50: −log10 of the molar value.

As usually defined, the CC50 is the concentration giving 50% cytotoxicity. In general, pIC50 refers to −log10 of the IC50, conventionally taken in molar units. On to `Clc1ccc(Oc2ccc(Cl)cc2OCCCCCCn2cc(COc3cc(Cl)ccc3Oc3ccc(Cl)cc3Cl)nn2)c(Cl)c1`, for which the selectivity ratio in data set [1] amounted to 3.2. Also, in [2], the cytotoxic concentration (CC50) at 48 h was determined as 104 µM. Besides, the results for the pIC50 in data set [3] and in data set [5] were 4.51 and 4.49, respectively. Besides, the Ratio IC50 in data set [4] came out at 1.04.

On to `Clc1ccc(Oc2ccc(Cl)cc2OCCCOc2cc(Cl)ccc2Oc2ccc(Cl)cc2Cl)c(Cl)c1`, for which the selectivity ratio in data set [1] amounted to 2.6. Besides, the CC50 at 48 h in data set [2] was 81.5 µM. The pIC50 in data set [3] is 4.56; in [5], 4.51. Moreover, in [4], the Ratio IC50 was determined as 1.11.

As for `Clc1ccc(Oc2ccc(Cl)cc2OCCCCCCOc2cc(Cl)ccc2Oc2ccc(Cl)cc2Cl)c(Cl)c1`, in data set [1], the selectivity ratio was 3.1. In addition, the CC50 at 48 h in data set [2] came out at 63.3 µM. Further, the results for the negative-log IC50 (pIC50) in data set [3] and in [5] were 4.67 and 4.69, respectively. Besides, the Ratio IC50 in data set [4] worked out at 0.95.

For `Oc1cc(Cl)c(NCc2cn(CCCCCCOc3cc(Cl)ccc3Oc3ccc(Cl)cc3Cl)nn2)cc1Oc1ccc(Cl)cc1Cl`, the selectivity ratio in [1] was found to be 2.6. In addition, the CC50 at 48 h in [2] was 66.3 µM. Further, the values for the pIC50 in data set [3] and in [5] were 4.61 and 4.59, respectively. Besides, the Ratio IC50 in data set [4] amounted to 1.05.

For `C=C[C@H]1CN2CC[C@H]1C[C@H]2[C@H](O)c1ccnc2ccc(OC)cc12` [QUININE], the results for the negative-log IC50 (pIC50) in data set [3] and in data set [5] were 6.92 and 6.35, respectively. For the same compound, in [4], the Ratio IC50 was determined as 3.75.

Take `O=[N+]([O-])c1cc(Oc2ccc(Cl)cc2Cl)c(OCc2cn(CCCOc3cc(Cl)ccc3Oc3ccc(Cl)cc3Cl)nn2)cc1Cl`: in data set [1], the selectivity ratio stood at 3.2. In addition, in data set [2], the CC50 at 48 h came out at 81.9 µM. The pIC50 was 4.65 in data set [3] and 4.59 in data set [5]. Further, the Ratio IC50 in [4] was 1.14.

`Oc1cc(Cl)c(NCc2cn(CCOc3cc(Cl)ccc3Oc3ccc(Cl)cc3Cl)nn2)cc1Oc1ccc(Cl)cc1Cl`: in data set [1], the selectivity ratio stood at 4.5. In addition, the CC50 at 48 h in data set [2] was 99.3 µM. In addition, the values for the negative logarithm of the IC50 (pIC50) in [3] and in [5] were 4.77 and 4.65, respectively. In addition, the Ratio IC50 in data set [4] worked out at 1.29.

With `Clc1ccc(Oc2ccc(Cl)cc2OCCCCCn2cc(COc3cc(Cl)ccc3Oc3ccc(Cl)cc3Cl)nn2)c(Cl)c1`, in [1], the selectivity ratio turned out to be 2.6. In addition, the CC50 at 48 h in data set [2] came out at 64.6 µM. In addition, the pIC50 in [3] is 4.71; in data set [5] it was 4.60. Further, the Ratio IC50 in data set [4] amounted to 1.3.

As to `O=C(N/N=C/c1ccc(OCc2cn(CCNc3ccnc4cc(Cl)ccc34)nn2)cc1)c1cnncn1`, the pIC50 in [6] was 6.59.

For `O=[N+]([O-])c1cc(Oc2ccc(Cl)cc2Cl)c(OCc2cn(CCCCCOc3cc(Cl)ccc3Oc3ccc(Cl)cc3Cl)nn2)cc1Cl`, in data set [1], the selectivity ratio amounted to 3.8. In addition, the CC50 at 48 h in [2] was found to be 116 µM. The results for the pIC50 in [3] and in [5] were 4.55 and 4.51, respectively. Besides, the Ratio IC50 in [4] came out at 1.08.

Turning to `Clc1ccc(Oc2ccc(Cl)cc2OCCCCOc2cc(Cl)ccc2Oc2ccc(Cl)cc2Cl)c(Cl)c1`, in data set [1], the selectivity ratio worked out at 4.5. The CC50 at 48 h in data set [2] was found to be 99.7 µM. In addition, the values for the pIC50 in data set [3] and in data set [5] were 4.62 and 4.65, respectively. Further, the Ratio IC50 in [4] was found to be 0.93.

For the compound `CCNCc1cc(Nc2ccnc3cc(Cl)ccc23)ccc1O` [DESETHYL AMODIAQUINE], the selectivity ratio in [1] came out at 725. Further, in [2], the CC50 at 48 h stood at 87 µM. The Ratio IC50 in data set [4] was 6.

In data set [7], `N#Cc1ccc(Oc2ccc(Cl)cc2Cl)c(O)c1` had a pIC50 of 7.31.

Consider `Clc1ccc(Oc2ccc(Cl)cc2OCCCCCOc2cc(Cl)ccc2Oc2ccc(Cl)cc2Cl)c(Cl)c1`, for which, in data set [1], the selectivity ratio was 2. In addition, the CC50 at 48 h in [2] was found to be 70.2 µM. In addition, the pIC50 in [3] is 4.58; in [5] it was 4.46. The Ratio IC50 in data set [4] worked out at 1.31.

Consider `Clc1ccc(Oc2ccc(Cl)cc2OCCn2cc(COc3cc(Cl)ccc3Oc3ccc(Cl)cc3Cl)nn2)c(Cl)c1`, for which the selectivity ratio in [1] came to 4.9. Also, the 50% cytotoxic concentration (CC50) at 48 h in data set [2] was determined as 105 µM. For the same compound, the pIC50 in [3] was 4.66; in data set [5], 4.67. In addition, the Ratio IC50 in data set [4] came out at 0.97.

In the case of `CCN(CC)CCCC(C)Nc1ccnc2cc(Cl)ccc12` (configuration not stated) [CHLOROQUINE], the CC50 at 48 h in data set [2] is more than 100 µM.

Regarding `C=C[C@H]1C[N@@]2CC[C@H]1C[C@H]2[C@H](O)c1ccnc2ccc(OC)cc12` [QUININE], the selectivity ratio in data set [1] was more than 222. In data set [2], the CC50 at 48 h was more than 100 µM.

For the compound `Oc1cc(Cl)c(NCc2cn(CCCOc3cc(Cl)ccc3Oc3ccc(Cl)cc3Cl)nn2)cc1Oc1ccc(Cl)cc1Cl`, the log K came out at 6.3 in data set [8] and 5.17 in [9]. The selectivity ratio in data set [1] was 7. In addition, in data set [2], the CC50 at 48 h was found to be 76.8 µM. Besides, the pIC50 in data set [3] was 4.68; in data set [5], 4.96. Moreover, the Ratio IC50 in data set [4] came out at 0.52.

For `Oc1cc(Cl)c(NCc2cn(CCCCOc3cc(Cl)ccc3Oc3ccc(Cl)cc3Cl)nn2)cc1Oc1ccc(Cl)cc1Cl`, in data set [1], the selectivity ratio is 3.3. Also, the CC50 at 48 h in [2] was 72.1 µM. The pIC50 in [3] was 4.62; in [5], 4.66. Further, the Ratio IC50 in data set [4] was determined as 0.9.

With `Oc1cc(Cl)c(NCc2cn(CCCCCOc3cc(Cl)ccc3Oc3ccc(Cl)cc3Cl)nn2)cc1Oc1ccc(Cl)cc1Cl`, the selectivity ratio in data set [1] worked out at 3.8. The CC50 at 48 h in [2] was found to be 75 µM. The pIC50 in [3] is 4.56; in [5] it was 4.70. The Ratio IC50 in data set [4] turned out to be 0.72.

`Clc1ccc(Oc2ccc(Cl)cc2OCCCn2cc(COc3cc(Cl)ccc3Oc3ccc(Cl)cc3Cl)nn2)c(Cl)c1`: the selectivity ratio in data set [1] turned out to be 4.2. Also, in [2], the CC50 at 48 h came out at 103 µM. Besides, the pIC50 was 4.68 in data set [3] and 4.61 in data set [5]. In [4], the Ratio IC50 was 1.17.

With `O=[N+]([O-])c1cc(Oc2ccc(Cl)cc2Cl)c(OCc2cn(CCCCOc3cc(Cl)ccc3Oc3ccc(Cl)cc3Cl)nn2)cc1Cl`, the selectivity ratio in [1] turned out to be 3.3. The CC50 at 48 h in data set [2] stood at 83.9 µM. Also, the results for the pIC50 in data set [3] and in data set [5] were 4.48 and 4.59, respectively. Further, in [4], the Ratio IC50 came to 0.77.

For `O=[N+]([O-])c1cc(Oc2ccc(Cl)cc2Cl)c(OCc2cn(CCOc3cc(Cl)ccc3Oc3ccc(Cl)cc3Cl)nn2)cc1Cl`, the selectivity ratio in [1] amounted to 3.6. The CC50 at 48 h in data set [2] came out at 91.8 µM. Besides, the pIC50 in data set [3] was 4.53; in data set [5] it was 4.54. Besides, the Ratio IC50 in data set [4] is 0.95.

As for `Clc1ccc(Oc2ccc(Cl)cc2OCCOc2cc(Cl)ccc2Oc2ccc(Cl)cc2Cl)c(Cl)c1`, the log K was found to be 6.58 in [8] and 6.4 in data set [9]. Also, in [1], the selectivity ratio is 9.8. In data set [2], the CC50 at 48 h was 90.9 µM. Also, the results for the pIC50 in data set [3] and in data set [5] were 4.92 and 5.03, respectively. Also, the Ratio IC50 in data set [4] was 0.77.

On to `O=[N+]([O-])c1cc(Oc2ccc(Cl)cc2Cl)c(OCc2cn(CCCCCCOc3cc(Cl)ccc3Oc3ccc(Cl)cc3Cl)nn2)cc1Cl`, for which the selectivity ratio in [1] worked out at 2.2. For the same compound, the half-maximal cytotoxic concentration (CC50) at 48 h in data set [2] stood at 54.9 µM. The pIC50 in [3] was 4.58; in data set [5], 4.60. Moreover, in data set [4], the Ratio IC50 turned out to be 0.96.

Consider `Clc1ccc(Oc2ccc(Cl)cc2OCCCCn2cc(COc3cc(Cl)ccc3Oc3ccc(Cl)cc3Cl)nn2)c(Cl)c1`, for which the selectivity ratio in [1] came to 3.5. Moreover, in [2], the CC50 at 48 h came out at 76.5 µM. In addition, the results for the pIC50 in [3] and in [5] were 4.68 and 4.65, respectively. Further, in [4], the Ratio IC50 is 1.06.

For `Oc1cc(Cl)ccc1Oc1ccc(Cl)cc1Cl`, the log K was determined as 6.16 in data set [8] and 5.8 in [9].
